Assay results: PMC6452685, “Lysyl-tRNA synthetase as a drug target in malaria and cryptosporidiosis” (Proceedings of the National Academy of Sciences of the …, 2019)

Columns and labels:
[1] = tested on: Plasmodium falciparum; assay: In vitro parasite reduction ratio (PRR) assay; assay type: cell-based; settings: 10 x EC50, 120 h
Description: 3.5 In vitro parasite reduction ratio (PRR) assay with Pl as modi um fal c i p aru m (G S K) The in vitro Parasite Rate Reduction assay (PRR) was conducted as previously described (8). […] Drug was renewed daily over the entire treatment period. Samples of paras i t es w ere t ak en from t he t reat ed cul t ure at i nt erv al s (24, 48, 72, 96 and 120 h t i me poi nt s ), drug was washed out and drug-free paras i t es w ere cul tured i n 96-well plates by adding fre s h e ry t hrocy t e s
and new cul ture medi a. T he n umber of vi abl e parasi tes was determi ned by the seri al di l uti on technique. Four indepe ndent serial dilutions were done with each sample to correct for experimental

[2] = target: T1, CYP2C9 (Homo sapiens, UniProt P11712); assay: Fluorescence-based CYP inhibition, CYP2C9; assay type: in vitro ADME
T1 construct: purchased Cypex, Dundee, UK; host or cells: bacterial membranes (bactosomes)
Description: (§1) 4.7 F lu or e s ce nce-based CYP I nhibition usin g recombinantly expressed CYP b actosomes Fl uorogeni c C YP i nhi bi t i on s t udi es w ere c ondu ct ed at 37 °C i n 96-well, flat-bot t om, cl ear p ol y s t y rene pl at es. I ncubat i on mi xt ures cont ai ni ng Eas y C YP bact os omes (1000 pmol /ml , 10 mg /ml C y pex TM, Dundee, UK), fl uorogeni c substrate (Cypex TM) and 50 mM potas s i um phosphat e buffer (p H 7. 4) w er e prepared at t he fol l ow i ng fi nal concent rat i ons : C YP1A2, 5 pmol /ml + 35 µ M et hox y res orufi n (ER) ; CYP2C9, 10 pm ol/ml + 30 µM 7-methoxy-4-(tri fl uo romethy l )-coumari n (MFC ); C YP 2C 19, 5 pm ol /ml + 25 µM 3-cy ano-7-eth oxycoumarin (CEC); C YP 2D 6, 10 pmol /ml + 6 µM 7-meth oxy-4-(ami nomethy l )- coumari n (MAMC ); C YP 3A4, 10 pmol /ml + 1 µM diethoxyfluorescein (DEF) and 10 pmol /ml + 15 µM 7-benz y l ox y qui nol i ne (BQ ). […] 0125 ( 1A2 and 2C 9 onl y ) o r 0. 025 mg /ml (al l ot her i s oforms ). […] Positive control inhibitor, miconazole, was prepared as a 500 µM s olution in DMSO and similarly diluted.
(§2) For eac h i sofo rm, 2 20 µl of i ncubati on mi x was added to each wel l of a 96-well, flat-bot t om, cl ear pol y s t y rene pl at e. Al i quot s (5 µl) of each compound 5 conce ntrati on was then mi x ed wi th 220 µl of the incubation mix and pre-incubated at 37 °C for 5 min (final test compound concentration range: […]

[3] = Hepatocyte stability, mouse; assay type: in vitro ADME
Description: SUPPLEMENTARY INFORMATION where V (ml/mg protein) is the incubation volume/mg protein added (0.5) and microsomal protein yield is taken as being 52.5 mg protein per g liver. Verapami l (0. 5 µ M ) w as us ed as a pos i t i v e cont rol to confirm ac ceptable assay performance. Ex peri ments were performed us i ng a s i ngl e ti me-cours e […]
4.5 He pat ocy t e s t abilit y
Cryopreserved hepatocytes were used to take non-CYP mediated Phase I and Phase II enzymes into […]
than those determined using li v e r mi crosomes or other subcellular liver fractions and could be mo re predi ct i v e of a met abol i c rat e det ermi ned in vivo.
Cryopreserved mouse (batch MC539) and huma n (batch HU E50H) hepatocytes were supplied by ThermoFi sher Sci enti fi c, Pai sl ey, UK and Xenotech, LLC, respectively. Cryopreserved hepatocytes were rapidly thawed in a pre-heat ed w at er bat h at 37 °C before ad di ng to 50 ml of pre-warmed CHRM medi a (ThermoFi sher Sci enti fi c, Paisley, UK) and mi xed gentl y. […] […] 5 mi l li on v i abl e cel l s /ml i n s uppl emented W ME. Onl y s us pens i ons whi ch ac hi ev ed >80% pos t-thaw viability were us ed i n ex peri ment s . […]
DMSO and 0.25 million cells/ml. […]

[4] = tested on: C. hominis (TU502); assay: Activity against Cryptosporidium hominis; assay type: cell-based
Description: Thi s i s bas ed on methods previ ousl y reported (14). Mature P. falciparum stage V gametocytes (NF54)
were incubated with test compound for 24 h at 3 7°C i n 384-well plates containing complete culture
medi um (RPMI 1640, 25 mM HEPES, 2 g/l D-glucose, 2 g/l sodium bicarbonate, 50 mg/l
Gametogenesis was triggered by dis pens i ng 10 µl ookinete medium (RPMI 1640, 25 mM HEPES, 2 g/l
D-glucose, 2 g/l sodium bicarbonate, 50 mg/l hy pox ant hi ne, 100 µM xanthurenic acid) also
contai ni ng 2. 7 µg/ml anti-Pfs25-Cy3 into each well and cooling the plate on a metal block at 4 °C fo r
4 mi n. Fi fteen s l ater male gametogenesis was recorded by b ri ghtfi el d i magi ng usi ng ti m e s 6 object i v e
and then the pl ate stored at 2 6 °C for a fu rther 24 h to allow female gametes to develop. Female
gamete formation was assessed by fluorescence m icroscopy using x6 objective to identify anti-Pfs25-
gentian violet negative and positive controls.
3.1 3 Act iv it y a gains t Cry pt os pori diu m h omi nis (CALIBR)
Thi s i s bas ed on methods previ ousl y reported (10).

[5] = tested on: P. falciparum stage V gametocytes; assay: P. falciparum stage V gametocytes; assay type: cell-based; settings: Plasmodium falciparum
Description: Thi s is a modification of the previously reported method (13). Asexual P. falciparum paras i t es (NF54) from a cl one G 3 w ere g row n at 5% hemat ocri t i n O+ human ery t hrocy t es i n s erum-contai ni ng compl ete medi a (RPMI 1640, g entami ci n 0. 05 mg /ml , hy pox anthi ne 0. 05 mg/ml, HEPES 38.4 mM , sodium bicarbonate 0.2% [w/v], D-glucose 0.2% [w/v], sodium hydroxide 3.4 mM, 11.9% [w/v] heat-inactivated human serum [O+] and at 37 °C un de r l ow-ox y g en con di t i ons (3% O2, 5% C O2, and 92% N2) and a paras i temi a between 0. 5% and 3%. Ri ng-stage parasites were synchronized at 3%
paras i t aemi a (d-6) w i t h 5% (w /v ) D-Sorbi tol . On day −4, 45ml of compl ete medi a was added to the
cul ture fl as k to s tres s vi a hematocri t drop now at 2. 5%. The o n d-3 an d d-2 onl y 45 ml o f the medi a
was substituted for fres h medi a.

[6] = target: T2, CYP2C19 (Homo sapiens, UniProt P33261); assay: Fluorescence-based CYP inhibition, CYP2C19; assay type: in vitro ADME
T2 construct: purchased Cypex, Dundee, UK; host or cells: bacterial membranes (bactosomes)
Description: as §1, §2

[7] = tested on: C. parvum Iowa strain; assay: In vitro inhibition of Cryptosporidium, C. parvum Iowa in HCT-8 cells (imaging); assay type: cell-based; settings: HCT-8, read-out: C. parvum Iowa strain EC50

T1 sequence (P11712 whole entry): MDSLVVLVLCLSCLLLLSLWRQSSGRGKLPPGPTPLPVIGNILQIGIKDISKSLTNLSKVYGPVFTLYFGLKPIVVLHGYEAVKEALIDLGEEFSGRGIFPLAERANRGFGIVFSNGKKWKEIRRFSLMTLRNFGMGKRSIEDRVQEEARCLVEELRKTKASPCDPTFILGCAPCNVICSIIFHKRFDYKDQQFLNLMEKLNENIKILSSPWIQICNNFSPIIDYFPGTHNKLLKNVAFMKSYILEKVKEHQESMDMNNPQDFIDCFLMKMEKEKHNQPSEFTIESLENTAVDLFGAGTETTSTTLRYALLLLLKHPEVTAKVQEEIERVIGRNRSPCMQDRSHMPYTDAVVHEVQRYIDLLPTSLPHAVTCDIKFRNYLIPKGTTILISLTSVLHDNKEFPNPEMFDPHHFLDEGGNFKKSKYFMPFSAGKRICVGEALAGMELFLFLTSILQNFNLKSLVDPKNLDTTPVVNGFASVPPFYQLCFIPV
T2 sequence (P33261 whole entry): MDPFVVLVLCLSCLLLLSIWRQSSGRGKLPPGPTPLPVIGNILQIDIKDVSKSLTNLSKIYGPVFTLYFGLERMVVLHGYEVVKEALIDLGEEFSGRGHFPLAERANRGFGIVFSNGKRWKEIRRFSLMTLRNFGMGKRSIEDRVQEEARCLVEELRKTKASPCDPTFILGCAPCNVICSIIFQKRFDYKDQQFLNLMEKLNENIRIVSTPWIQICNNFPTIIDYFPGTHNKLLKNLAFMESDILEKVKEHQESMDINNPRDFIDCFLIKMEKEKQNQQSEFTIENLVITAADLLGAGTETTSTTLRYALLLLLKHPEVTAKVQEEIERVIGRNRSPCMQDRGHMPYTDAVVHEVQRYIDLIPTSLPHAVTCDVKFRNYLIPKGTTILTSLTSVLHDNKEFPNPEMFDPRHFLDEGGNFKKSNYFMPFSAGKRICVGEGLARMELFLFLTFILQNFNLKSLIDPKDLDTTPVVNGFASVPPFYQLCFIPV

What does the source list for `O=C(NCC1(O)CCC(F)(F)CC1)c1cc(=O)c2cc(F)ccc2o1` [Compound 5]?
rate of killing (PRR assay) [1]: slow rate of killing; IC50 [2]: > 10 µM; Hepatocyte stability CLint [3]: 0.5 (mouse), <0.5 (human) mL⋅min^−1⋅g^−1; EC50 [4]: 6 µM; EC50 [5]: 9.9 µM; IC50 [6]: > 10 µM; EC50 [7]: 1.3 µM
